target: Mcl-1 protein (UniProtKB Q07820) (Homo sapiens (Human), UniProt Q07820); assay: Inhibition of Mcl-1 by the fluorescence polarisation assay (Example A, Method A); format: binding; details: fluorescence polarization assay
Summary of the method: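 Protein (5 nM) and fluorescein-tagged peptide tracer (1 nM) incubated with 11-point compound series for 2 h at room temperature in HEPES/NaCl/Tween 20 buffer, pH 7.4, 5% DMSO. Displacement read as decrease in polarisation; IC50 fitted by 4-parameter logistic, converted to Ki (cKi or eKi).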

Mcl-1 protein, sequence (Q07820 whole entry): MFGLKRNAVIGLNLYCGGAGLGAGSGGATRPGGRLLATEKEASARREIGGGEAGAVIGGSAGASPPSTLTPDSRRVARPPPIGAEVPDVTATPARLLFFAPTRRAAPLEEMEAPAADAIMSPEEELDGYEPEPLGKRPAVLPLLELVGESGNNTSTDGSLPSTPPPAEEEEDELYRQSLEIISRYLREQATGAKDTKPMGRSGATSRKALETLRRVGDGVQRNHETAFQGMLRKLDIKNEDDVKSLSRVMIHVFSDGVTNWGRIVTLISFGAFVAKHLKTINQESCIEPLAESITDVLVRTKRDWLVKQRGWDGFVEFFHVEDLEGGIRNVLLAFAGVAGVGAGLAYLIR

| Ki [nM] | SMILES |
| --- | --- |
| 93.7 | O=C(O)[C@]1(Nc2cccc(Cl)c2)CC[C@]2(CC1)C(CC(COc1ccnc3ccsc13)COc1ccnc3ccsc13)=Cc1ccccc12 [Example 492, (1r,4r)-4-(3-chloroanilino)-2′-(3-[(thieno[3,2-b]pyridin-7-yl)oxy]-2-{[(thieno[3,2-b]pyridin-7-yl)oxy]methyl}propyl)spiro[cyclohexane-1,1′-indene]-4-carboxylic acid] |
| 600 | O=C(O)[C@]1(Nc2cccc(Br)c2)CC[C@@]2(CC1)c1ccccc1CC2CCc1cccnc1 (stereo partly shown) [Example 164, (1r,4r)-4-(3-bromoanilino)-2′-[2-(pyridin-3-yl)ethyl]-2′,3′-dihydrospiro[cyclohexane-1,1′-indene]-4-carboxylic acid] |
| 6090 | O=C(O)[C@]1(Nc2cccc(Cl)c2)CC[C@]2(CC1)C(C1=CCCC1)=Cc1ccccc12 [Example 277, (1r,4r)-4-(3-chloroanilino)-2′-(cyclopent-1-en-1-yl)spiro[cyclohexane-1,1′-indene]-4-carboxylic acid] |
| 300 | O=C(O)[C@]1(Nc2cccc(Cl)c2)CC[C@]2(CC1)C(COCCc1ccccc1Cl)=Cc1ccccc12 [Example 419, (1s,4s)-4-(3-chloroanilino)-2′-{[2-(2-chlorophenyl)ethoxy]methyl}spiro[cyclohexane-1,1′-indene]-4-carboxylic acid] |
| 14300 | O=C(O)C1(Nc2cccc(Br)c2)CCC2(CC1)c1ccccc1CC2c1nccs1 (single isomer, unassigned) [Example 223, 4-(3-bromoanilino)-2′-(1,3-thiazol-2-yl)-2′,3′-dihydrospiro[cyclohexane-1,1′-indene]-4-carboxylic acid] |
| 289 | O=C(O)[C@]1(Nc2cccc(Cl)c2)CC[C@@]2(CC1)c1ccccc1C[C@H]2c1cccc(Cc2ccccc2)c1 [Example 325, (1r,2′S,4S)-2′-(3-benzylphenyl)-4-(3-chloroanilino)-2′,3′-dihydrospiro[cyclohexane-1,1′-indene]-4-carboxylic acid] |
| 11800 | COCCOc1cccc(N[C@]2(C(=O)O)CC[C@@]3(CC2)C(Br)=Cc2ccccc23)n1 [Example 80, (1s,4s)-2′-bromo-4-{[6-(2-methoxyethoxy)pyridin-2-yl]amino}spiro[cyclohexane-1,1′-indene]-4-carboxylic acid] |
| 36300 | CC1=Nc2ccc(Br)cc2[C@]12CC[C@](Nc1cccc(Br)c1)(C(=O)O)CC2 [Example 27, (1r,4r)-5′-bromo-4-(3-bromoanilino)-2′-methylspiro[cyclohexane-1,3′-indole]-4-carboxylic acid] |
| 381 | COc1cccc([C@@H]2Cc3ccccc3[C@]23CC[C@@](Nc2cccc(Br)c2)(C(=O)O)CC3)c1 [Example 219, (1r,2′S,4S)-4-(3-bromoanilino)-2′-(3-methoxyphenyl)-2′,3′-dihydrospiro[cyclohexane-1,1′-indene]-4-carboxylic acid] |
| 499 | O=C(O)[C@]1(Nc2cccc(Cl)c2)CC[C@@]2(CC1)c1ccccc1CC2c1cccc2ccoc12 (single isomer, unassigned) [Example 293, (1r,4r)-2′-(1-benzofuran-7-yl)-4-(3-chloroanilino)-2′,3′-dihydrospiro[cyclohexane-1,1′-indene]-4-carboxylic acid] |
| 57.6 | CC(O)c1ccc2c(c1)[C@]1(CC[C@@](Nc3cccc(Cl)c3)(C(=O)O)CC1)C(Br)=C2 (stereo partly shown) [Example 133, (1s,4s)-2′-bromo-4-(3-chloroanilino)-6′-(1-hydroxyethyl)spiro[cyclohexane-1,1′-indene]-4-carboxylic acid] |
| 138 | COc1cc(OCCC2Cc3ccccc3[C@]23CC[C@@](Nc2cccc(Cl)c2)(C(=O)O)CC3)ccn1 (stereo partly shown) [Example 174, (1r,4r)-4-(3-chloroanilino)-2′-{2-[(2-methoxypyridin-4-yl)oxy]ethyl}-2′,3′-dihydrospiro[cyclohexane-1,1′-indene]-4-carboxylic acid] |
| 8210 | CN(CCc1ccncc1)C(=O)C1=Cc2ccccc2[C@]12CC[C@@](Nc1cccc(Cl)c1)(C(=O)O)CC2 [Example 403, (1s,4s)-4-(3-chloroanilino)-2′-{methyl[2-(pyridin-4-yl)ethyl]carbamoyl}spiro[cyclohexane-1,1′-indene]-4-carboxylic acid] |
| 1190 | COc1ccc2c(c1)[C@]1(CC[C@@](Nc3cccc(Br)c3)(C(=O)O)CC1)C1(CCCC1)C2 [Example 95, (1r,4r)-4-(3-bromoanilino)-6′-methoxy-3′H-dispiro[cyclohexane-1,1′-indene-2′,1″-cyclopentane]-4-carboxylic acid] |
| 6630 | O=C(O)[C@]1(Nc2cccc(Cl)c2)CC[C@@]2(CC1)c1ccccc1CC2c1cccc2ccoc12 (single isomer, unassigned) [Example 294, (1r,4r)-2′-(1-benzofuran-7-yl)-4-(3-chloroanilino)-2′,3′-dihydrospiro[cyclohexane-1,1′-indene]-4-carboxylic acid] |
| 555 | O=C1CCc2c(OCCCC3Cc4ccccc4[C@]34CC[C@@](Nc3cccc(Cl)c3)(C(=O)O)CC4)cccc21 (stereo partly shown) [Example 435, (1r,4r)-4-(3-chloroanilino)-2′-{3-[(1-oxo-2,3-dihydro-1H-inden-4-yl)oxy]propyl}-2′,3′-dihydrospiro[cyclohexane-1,1′-indene]-4-carboxylic acid] |
| 1340 | COc1ccc(C2=Cc3ccccc3[C@]23CC[C@@](Nc2cccc(Cl)c2)(C(=O)O)CC3)c(C)c1 [Example 229, (1s,4s)-4-(3-chloroanilino)-2′-(4-methoxy-2-methylphenyl)spiro[cyclohexane-1,1′-indene]-4-carboxylic acid] |
| 688 | O=C(O)[C@]1(Nc2cccc(Cl)c2)CC[C@]2(CC1)C(CCNc1ccccc1)=Cc1ccccc12 [Example 166, (1r,4r)-2′-(2-anilinoethyl)-4-(3-chloroanilino)spiro[cyclohexane-1,1′-indene]-4-carboxylic acid] |
| 11400 | CN(Cc1ccccc1)C(=O)C1=Cc2ccccc2[C@]12CC[C@@](Nc1cccc(Cl)c1)(C(=O)O)CC2 [Example 181, (1s,4s)-2′-[benzyl(methyl)carbamoyl]-4-(3-chloroanilino)spiro[cyclohexane-1,1′-indene]-4-carboxylic acid] |
| 1220 | O=C(O)[C@]1(Nc2cccc(Cl)c2)CC[C@@]2(CC1)c1ccccc1CC2c1coc2ccccc12 (single isomer, unassigned) [Example 284, (1r,4r)-2′-(1-benzofuran-3-yl)-4-(3-chloroanilino)-2′,3′-dihydrospiro[cyclohexane-1,1′-indene]-4-carboxylic acid] |
| 1750 | O=C(O)[C@]1(Nc2cccc(Cl)c2)CC[C@@]2(CC1)c1ccccc1CC2CCCOc1n[nH]c2c1CCCC2 (stereo partly shown) [Example 433, (1r,4r)-4-(3-chloroanilino)-2′-{3-[(4,5,6,7-tetrahydro-1H-indazol-3-yl)oxy]propyl}-2′,3′-dihydrospiro[cyclohexane-1,1′-indene]-4-carboxylic acid] |
| 2170 | COc1ccc(C2Cc3ccccc3[C@]23CC[C@@](Nc2cccc(Cl)c2)(C(=O)O)CC3)c(C)c1 (single isomer, unassigned) [Example 254, (1r,4r)-4-(3-chloroanilino)-2′-(4-methoxy-2-methylphenyl)-2′,3′-dihydrospiro[cyclohexane-1,1′-indene]-4-carboxylic acid] |

— patent US20240150293A1, “SPIROCYCLOHEXANE DERIVATIVES, PHARMACEUTICAL COMPOSITIONS CONTAINING THEM AND THEIR USES AS ANTI-APOPTOTIC INHIBITORS” (LES LABORATOIRES SERVIER, priority 2021, published 2024)
